Experimental data taken from PubChem BioAssay AID1259407 (Chemical Carcinogenesis Research Information System (CCRIS), 2018).
Active and inactive are the calls of the source. How the calls were made is not given here.

Tested on: CCRIS mutagenicity, Ames/micronucleus/aberration tests
Assay: CCRIS mutagenicity studies
[1] = Test System: AMES SALMONELLA TYPHIMURIUM, Strain/Indicator: TA98, Metabolic Activation: HAMSTER, LIVER, S-9, AROCLOR 1254 (10%), Method: PREINCUBATION
[2] = Test System: AMES SALMONELLA TYPHIMURIUM, Strain/Indicator: TA98, Metabolic Activation: NONE, Method: PREINCUBATION
[3] = Test System: AMES SALMONELLA TYPHIMURIUM, Strain/Indicator: TA98, Metabolic Activation: RAT, LIVER, S-9, AROCLOR 1254 (10%), Method: PREINCUBATION
[4] = Test System: AMES SALMONELLA TYPHIMURIUM, Strain/Indicator: TA100, Metabolic Activation: HAMSTER, LIVER, S-9, AROCLOR 1254 (10%), Method: PREINCUBATION
[5] = Test System: AMES SALMONELLA TYPHIMURIUM, Strain/Indicator: TA100, Metabolic Activation: NONE, Method: PREINCUBATION
[6] = Test System: AMES SALMONELLA TYPHIMURIUM, Strain/Indicator: TA100, Metabolic Activation: RAT, LIVER, S-9, AROCLOR 1254 (10%), Method: PREINCUBATION
[7] = Test System: AMES SALMONELLA TYPHIMURIUM, Strain/Indicator: TA1535, Metabolic Activation: HAMSTER, LIVER, S-9, AROCLOR 1254 (10%), Method: PREINCUBATION
[8] = Test System: AMES SALMONELLA TYPHIMURIUM, Strain/Indicator: TA1535, Metabolic Activation: NONE, Method: PREINCUBATION
[9] = Test System: AMES SALMONELLA TYPHIMURIUM, Strain/Indicator: TA1535, Metabolic Activation: RAT, LIVER, S-9, AROCLOR 1254 (10%), Method: PREINCUBATION
[10] = Test System: AMES SALMONELLA TYPHIMURIUM, Strain/Indicator: TA1537, Metabolic Activation: HAMSTER, LIVER, S-9, AROCLOR 1254 (10%), Method: PREINCUBATION
[11] = Test System: AMES SALMONELLA TYPHIMURIUM, Strain/Indicator: TA1537, Metabolic Activation: NONE, Method: PREINCUBATION
[12] = Test System: AMES SALMONELLA TYPHIMURIUM, Strain/Indicator: TA1537, Metabolic Activation: RAT, LIVER, S-9, AROCLOR 1254 (10%), Method: PREINCUBATION
[13] = Test System: AMES SALMONELLA TYPHIMURIUM, Strain/Indicator: TA98, Metabolic Activation: NONE, Method: STANDARD PLATE
[14] = Test System: AMES SALMONELLA TYPHIMURIUM, Strain/Indicator: TA98, Metabolic Activation: RAT, LIVER, S-9, AROCLOR 1254, Method: STANDARD PLATE
[15] = Test System: AMES SALMONELLA TYPHIMURIUM, Strain/Indicator: TA100, Metabolic Activation: NONE, Method: STANDARD PLATE
[16] = Test System: AMES SALMONELLA TYPHIMURIUM, Strain/Indicator: TA100, Metabolic Activation: RAT, LIVER, S-9, AROCLOR 1254, Method: STANDARD PLATE
[17] = Test System: AMES SALMONELLA TYPHIMURIUM, Strain/Indicator: TA1535, Metabolic Activation: NONE, Method: STANDARD PLATE
[18] = Test System: AMES SALMONELLA TYPHIMURIUM, Strain/Indicator: TA1537, Metabolic Activation: NONE, Method: STANDARD PLATE
[19] = Test System: AMES SALMONELLA TYPHIMURIUM, Strain/Indicator: TA1538, Metabolic Activation: NONE, Method: STANDARD PLATE

Compound: CCOC(=O)C1OC1(C)c1ccccc1 (configuration not stated)
- mutagenic call (End Point: IN VITRO CHROMOSOMAL ABERRATIONS, Test System: CHINESE HAMSTER OVARY CELLS, Metabolic Activation: NONE): active; positive; statistically significant increase, but not dose-related
- mutagenic call (End Point: IN VITRO CHROMOSOMAL ABERRATIONS, Test System: CHINESE HAMSTER OVARY CELLS, Metabolic Activation: RAT, LIVER, S-9, AROCLOR 1254): active; positive
- mutagenic call [1]: inactive; negative
- mutagenic call [2]: inactive; negative
- mutagenic call [3]: inactive; negative
- mutagenic call [4]: inactive; negative
- mutagenic call [5]: inactive; negative
- mutagenic call [6]: inactive; negative
- mutagenic call [7]: inactive; negative
- mutagenic call [8]: inactive; negative
- mutagenic call [9]: inactive; negative
- mutagenic call [10]: inactive; negative
- mutagenic call [11]: inactive; negative
- mutagenic call [12]: inactive; negative

Compound: OC[C@@H](O)[C@@H](O)[C@H](O)[C@H](O)CO
- mutagenic call (End Point: IN VITRO CHROMOSOMAL ABERRATIONS, Test System: CHO CELLS, Metabolic Activation: NONE): inactive; negative
- mutagenic call (End Point: IN VITRO CHROMOSOMAL ABERRATIONS, Test System: CHO CELLS, Metabolic Activation: RAT, LIVER, S-9, AROCLOR 1254): inactive; negative
- mutagenic call (Test System: AMES SALMONELLA TYPHIMURIUM, Strain/Indicator: TA97, Metabolic Activation: NONE, Method: PREINCUBATION): inactive; negative
- mutagenic call (Test System: AMES SALMONELLA TYPHIMURIUM, Strain/Indicator: TA97, Metabolic Activation: S-9, Method: PREINCUBATION): inactive; negative
- mutagenic call [13]: inactive; negative
- mutagenic call [14]: inactive; negative
- mutagenic call [15]: inactive; negative
- mutagenic call [16]: inactive; negative
- mutagenic call (Test System: AMES SALMONELLA TYPHIMURIUM, Strain/Indicator: TA102, Metabolic Activation: NONE, Method: PREINCUBATION): inactive; negative
- mutagenic call (Test System: AMES SALMONELLA TYPHIMURIUM, Strain/Indicator: TA102, Metabolic Activation: S-9, Method: PREINCUBATION): inactive; negative
- mutagenic call [17]: inactive; negative
- mutagenic call (Test System: AMES SALMONELLA TYPHIMURIUM, Strain/Indicator: TA1535, Metabolic Activation: RAT, LIVER, S-9, AROCLOR 1254, Method: STANDARD PLATE): inactive; negative
- mutagenic call [18]: inactive; negative
- mutagenic call (Test System: AMES SALMONELLA TYPHIMURIUM, Strain/Indicator: TA1537, Metabolic Activation: RAT, LIVER, S-9, AROCLOR 1254, Method: STANDARD PLATE): inactive; negative
- mutagenic call [19]: inactive; negative
- mutagenic call (Test System: AMES SALMONELLA TYPHIMURIUM, Strain/Indicator: TA1538, Metabolic Activation: RAT, LIVER, S-9, AROCLOR 1254, Method: STANDARD PLATE): inactive; negative
- mutagenic call (Test System: E. COLI, Strain/Indicator: WP2, Metabolic Activation: NONE, Method: STANDARD PLATE): inactive; negative
- mutagenic call (Test System: E. COLI, Strain/Indicator: WP2, Metabolic Activation: RAT, LIVER, S-9, AROCLOR 1254, Method: STANDARD PLATE): inactive; negative

Compound: NC(=O)OC[C@H](O)[C@@H](O)[C@H](N)C(=O)N[C@H](C(=O)[O-])[C@H]1O[C@@H](n2cc(C(=O)[O-])c(=O)[nH]c2=O)[C@H](O)[C@@H]1O.[Zn+2]
- mutagenic call [15]: active; positive
- mutagenic call (Test System: AMES SALMONELLA TYPHIMURIUM, Strain/Indicator: TA100, Metabolic Activation: S-9 MIX, Method: STANDARD PLATE): active; positive

Compound: C=C1C(=O)O[C@@H]2[C@H]1CC[C@H](C)[C@@H]1C=CC(=O)[C@@]21C
- mutagenic call [13]: inactive; negative
- mutagenic call [14]: inactive; negative
- mutagenic call [15]: inactive; negative
- mutagenic call [16]: inactive; negative

Compound: CNC(=O)OCc1nc(SC)n(C)c1COC(=O)NC
- mutagenic call (Test System: Mouse lymphoma, Strain/Indicator: L5178Y (tk+/tk-), Metabolic Activation: None, Method: Suspension/plate): active; positive
- mutagenic call (Test System: Mouse lymphoma, Strain/Indicator: L5178Y (tk+/tk-), Metabolic Activation: Rat, Liver, S-9, Aroclor 1254, Method: Suspension/plate): active; positive

Compound: C[C@@H](C(=O)O)N(N=[N+]=[N-])C(=O)OC(C)(C)C
- mutagenic call [15]: active; positive

Compound: CCN1CCOCC1
- mutagenic call [1]: inactive; negative
- mutagenic call [2]: inactive; negative
- mutagenic call [3]: inactive; negative
- mutagenic call [4]: inactive; negative
- mutagenic call [5]: inactive; negative
- mutagenic call [6]: inactive; negative
- mutagenic call (Test System: AMES SALMONELLA TYPHIMURIUM, Strain/Indicator: TA1535, Metabolic Activation: HAMSTER, LIVER, S-9, AROCLOR 1254 (5 OR 30%), Method: PREINCUBATION): active; positive
- mutagenic call [7]: active; positive
- mutagenic call [8]: inactive; negative
- mutagenic call (Test System: AMES SALMONELLA TYPHIMURIUM, Strain/Indicator: TA1535, Metabolic Activation: RAT, LIVER, S-9, AROCLOR 1254 (5 OR 30%), Method: PREINCUBATION): active; positive
- mutagenic call [9]: active; positive
- mutagenic call [10]: inactive; negative
- mutagenic call [11]: inactive; negative
- mutagenic call [12]: inactive; negative

Compound: Cc1cccn2c(=O)c(-c3nnn[nH]3)cnc12
- mutagenic call [13]: inactive; negative
- mutagenic call (Test System: AMES SALMONELLA TYPHIMURIUM, Strain/Indicator: TA98, Metabolic Activation: S-9, Method: STANDARD PLATE): inactive; negative
- mutagenic call [15]: inactive; negative
- mutagenic call (Test System: AMES SALMONELLA TYPHIMURIUM, Strain/Indicator: TA100, Metabolic Activation: S-9, Method: STANDARD PLATE): inactive; negative
- mutagenic call [17]: inactive; negative
- mutagenic call (Test System: AMES SALMONELLA TYPHIMURIUM, Strain/Indicator: TA1535, Metabolic Activation: S-9, Method: STANDARD PLATE): inactive; negative
- mutagenic call [18]: inactive; negative
- mutagenic call (Test System: AMES SALMONELLA TYPHIMURIUM, Strain/Indicator: TA1537, Metabolic Activation: S-9, Method: STANDARD PLATE): inactive; negative
- mutagenic call [19]: inactive; negative
- mutagenic call (Test System: AMES SALMONELLA TYPHIMURIUM, Strain/Indicator: TA1538, Metabolic Activation: S-9, Method: STANDARD PLATE): inactive; negative
- mutagenic call (Test System: E. COLI, Strain/Indicator: WP2 UVRA, Metabolic Activation: NONE, Method: STANDARD PLATE): inactive; negative
- mutagenic call (Test System: E. COLI, Strain/Indicator: WP2 UVRA, Metabolic Activation: S-9, Method: STANDARD PLATE): inactive; negative
